The text below walks through data of PMC7682989, “Large domain movements through the lipid bilayer mediate substrate release and inhibition of glutamate transporters” (eLife, 2020).

Changes are numbered by the printed parent chain.

Experiment [1] addresses GltPh-K55C/C321A/A364C, cross-linked with HgCl2 (GltPh^IFS) (UniProt O59010). In words: cryo-EM structure; single-particle cryo-EM of GltPh reconstituted into MSP1E3 nanodiscs (E. coli polar lipid extract : egg phosphatidylcholine 3:1); 20 mM Hepes/Tris pH 7.4, 200 mM NaCl with 1 mM L-asp, 10 mM DL-TBOA, 10 mM TFB-TBOA or NaCl only; 3D classes without symmetry, then C3 refinement.

Experiment [2] addresses T1, GltPh (Pyrococcus horikoshii, UniProt O59010, D37H/K40H/K125H/K132H/K223H/K264H/E368H).
T1 construct: gene PH1295; C-terminal His8 cut by thrombin; E. coli DH10B; homotrimer; DDM (ITC) or MSP1E3 nanodiscs (cryo-EM)
T1 sequence (O59010 1-425 D37H/K40H/K125H/K132H/K223H/K264H/E368H limits assumed): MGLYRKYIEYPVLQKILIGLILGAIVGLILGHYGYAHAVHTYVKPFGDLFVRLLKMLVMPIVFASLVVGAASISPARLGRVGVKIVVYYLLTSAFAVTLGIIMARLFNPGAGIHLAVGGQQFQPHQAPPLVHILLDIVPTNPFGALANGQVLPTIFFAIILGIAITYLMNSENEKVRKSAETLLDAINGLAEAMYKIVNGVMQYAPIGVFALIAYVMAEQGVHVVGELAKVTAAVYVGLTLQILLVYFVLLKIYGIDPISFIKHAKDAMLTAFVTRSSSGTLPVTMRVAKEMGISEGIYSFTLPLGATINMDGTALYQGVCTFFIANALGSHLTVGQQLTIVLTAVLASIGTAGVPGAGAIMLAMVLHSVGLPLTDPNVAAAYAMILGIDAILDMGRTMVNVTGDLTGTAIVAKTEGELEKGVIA
In words: cryo-EM structure. It is filed as binding. To be noted: outward-facing state, MSP1E3 nanodiscs; 200 mM NaCl, 10 mM DL-TBOA, pH 7.4.

The target in experiment [3] is T2, GltPh (Pyrococcus horikoshii, UniProt O59010, D37H/K40H/K55C/K125H/K132H/K223H/K264H/C321A/A364C/E368H).
T2 construct: gene PH1295; C-terminal His8 cut by thrombin; E. coli DH10B; homotrimer; DDM (ITC) or MSP1E3 nanodiscs (cryo-EM)
T2 sequence (O59010 1-425 D37H/K40H/K55C/K125H/K132H/K223H/K264H/C321A/A364C/E368H limits assumed): T1 sequence (O59010 1-425 D37H/K40H/K125H/K132H/K223H/K264H/E368H limits assumed) with K55C, C321A, A364C
The experiment can be described thus: isothermal titration calorimetry. It is filed as binding. To be noted: inward-facing, Hg2+-crosslinked K55C/A364C; DDM; 200 mM NaCl, pH 7.4, 15 °C; n 0.8; structure in nanodiscs 3.71 Å. (Isothermal titration calorimetry measures the heat released or taken up as one component is titrated into another.)

Experiment [4] has as its target T2, GltPh. In words: cryo-EM structure. It is filed as binding. To be noted: inward-facing, Hg2+-crosslinked K55C/A364C; MSP1E3 nanodiscs; 200 mM NaCl, 1 mM L-asp, pH 7.4.
For experiment [5], the target named is GltPh, the fully functional seven-histidine mutant referred to as wildtype (WT) (UniProt O59010). In words: cryo-EM structure; single-particle cryo-EM of GltPh reconstituted into MSP1E3 nanodiscs (E. coli polar lipid extract : egg phosphatidylcholine 3:1); 20 mM Hepes/Tris pH 7.4, 200 mM NaCl with 1 mM L-asp, 10 mM DL-TBOA, 10 mM TFB-TBOA or NaCl only; 3D classes without symmetry, then C3 refinement.

As to “GltPh-K55C/C321A/A364C, cross-linked with HgCl2 (GltPh^IFS) (from UniProt O59010 1-425) (natural protein)”, the stoichiometry N (commonly a count of units in the complex or per binding partner) in experiment [1] came out at 3. With `NC(C(=O)O)C(OCc1ccccc1)C(=O)O` (racemic) [DL-TBOA, DL-threo-β-benzyloxyaspartate], the cryo-EM structure result at GltPh [2] is listed as “wild type outward-facing GltPh in complex with TBOA (GltPh^OFS-TBOA)”. Regarding `N[C@H](C(=O)O)[C@H](OCc1cccc(NC(=O)c2ccc(C(F)(F)F)cc2)c1)C(=O)O` [TFB-TBOA, (2S,3S)−3-[3-[4-(trifluoromethyl)benzoylamino]benzyloxy]aspartate], the Kd (in general, the free concentration of one partner at which half of the binding sites on the other are occupied at equilibrium, for simple one-to-one binding) at GltPh [3] is 3.8 µM. In the case of `N[C@@H](CC(=O)O)C(=O)O` [L-asp], on GltPh [4], the cryo-EM structure entry is recorded as “bound to L-asp (GltPh^IFS-Asp)”.

As to “GltPh, the fully functional seven-histidine mutant referred to as wildtype (WT) (from UniProt O59010 1-417) (natural protein)”, the stoichiometry N in experiment [5] stood at 3.
